In ChEMBL document CHEMBL1201862, “PubChem BioAssay data set” (2004):
Active and inactive are the calls of the source.

Key:
SUMO-activating enzyme [1] = target: T1, SUMO-activating enzyme (Homo sapiens, UniProt Q9UBT2); experiment: inhibitors of in vitro SUMOylation cascade, primary screen, biochemical, HTRF, uHTS (AID 2006); assay type: protein-complex assay
[2] = target: T2, Small ubiquitin-related modifier 1 (Homo sapiens, UniProt P63165); experiment: inhibitors of SUMO1 peptide binding, dose response, biochemical, fluorescence polarization, uHTS hits (AID 624382); assay type: functional; conditions: read-out: IC50_Mean
[3] = target: T2, Small ubiquitin-related modifier 1; experiment: inhibitors of SUMO1 partner interactions, dose response, biochemical, FRET (AID 624383); assay type: functional; conditions: read-out: IC50_Mean
[4] = target: 26S proteasome non-ATPase regulatory subunit 14 (Homo sapiens, UniProt O00487); experiment: inhibition of proteasome subunit RPN11 – biochemical, fluorescence polarization, uHTS hits, confirmation (AID 602368); assay type: functional
[5] = target: T3, Tyrosine-protein phosphatase non-receptor type 5 (Homo sapiens, UniProt P54829); experiment: STEP phosphatase inhibitors, confirmation, biochemical, fluorescence intensity, uHTS hits (AID 602372); assay type: functional; conditions: read-out: IC50_Mean
T3 sequence (P54829 whole entry): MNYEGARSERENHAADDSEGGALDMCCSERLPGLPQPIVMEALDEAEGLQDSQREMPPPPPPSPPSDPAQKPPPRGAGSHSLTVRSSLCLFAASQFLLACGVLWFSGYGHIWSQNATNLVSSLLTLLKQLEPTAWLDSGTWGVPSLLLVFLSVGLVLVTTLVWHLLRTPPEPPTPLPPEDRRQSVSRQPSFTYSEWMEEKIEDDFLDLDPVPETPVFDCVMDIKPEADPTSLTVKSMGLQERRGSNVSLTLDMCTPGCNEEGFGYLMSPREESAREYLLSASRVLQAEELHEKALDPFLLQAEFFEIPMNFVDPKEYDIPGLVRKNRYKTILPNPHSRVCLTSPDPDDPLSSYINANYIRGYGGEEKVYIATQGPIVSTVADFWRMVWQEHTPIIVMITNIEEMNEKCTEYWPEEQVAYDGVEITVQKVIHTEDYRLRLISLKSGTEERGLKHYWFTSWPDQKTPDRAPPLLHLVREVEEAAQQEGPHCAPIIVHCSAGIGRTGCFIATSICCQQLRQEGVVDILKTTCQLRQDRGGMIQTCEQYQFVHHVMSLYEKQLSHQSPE

Prothrombin [6] = target: Prothrombin (Bos taurus, UniProt P00735); experiment: thrombin inhibition, dose response, biochemical, fluorescence polarization, uHTS hits (AID 602369); assay type: functional
[7] = target: 72 kDa type IV collagenase (Homo sapiens, UniProt P08253); experiment: Dose Response validation of uHTS RPN11 inhibitor hits using a MMP-2 Fluorescence assay.; assay type: functional
[8] = target: Dual specificity protein phosphatase 3 (Homo sapiens, UniProt P51452); experiment: VHR phosphatase inhibition, dose response, selectivity assay for STEP inhibitor project, biochemical (AID 602374); assay type: functional; conditions: read-out: IC50_Mean
[9] = target: T4, Tyrosine-protein phosphatase non-receptor type 11 (Homo sapiens, UniProt Q06124); experiment: SHP2 phosphatase inhibition, dose response, selectivity assay for STEP inhibitor project, biochemical (AID 602367); assay type: functional; conditions: read-out: IC50_Mean
T4 sequence (Q06124 whole entry): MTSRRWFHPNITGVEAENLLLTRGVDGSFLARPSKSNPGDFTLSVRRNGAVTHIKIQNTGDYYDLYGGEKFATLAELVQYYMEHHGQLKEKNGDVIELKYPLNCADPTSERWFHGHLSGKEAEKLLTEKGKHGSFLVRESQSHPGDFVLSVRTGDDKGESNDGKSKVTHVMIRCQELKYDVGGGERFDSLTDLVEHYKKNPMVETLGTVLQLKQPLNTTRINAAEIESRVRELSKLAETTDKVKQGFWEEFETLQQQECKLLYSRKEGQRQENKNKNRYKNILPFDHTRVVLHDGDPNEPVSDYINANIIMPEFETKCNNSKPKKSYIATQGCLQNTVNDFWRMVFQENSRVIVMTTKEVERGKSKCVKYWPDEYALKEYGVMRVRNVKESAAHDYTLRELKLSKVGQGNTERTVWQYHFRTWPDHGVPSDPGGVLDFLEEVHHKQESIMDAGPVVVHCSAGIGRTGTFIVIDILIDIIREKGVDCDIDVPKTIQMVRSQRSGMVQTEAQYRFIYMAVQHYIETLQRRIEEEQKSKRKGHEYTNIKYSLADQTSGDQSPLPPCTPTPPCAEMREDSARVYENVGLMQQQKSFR

SUMO-activating enzyme [10] = target: T1, SUMO-activating enzyme; experiment: SUMOylation inhibitor hit validation, confirmation, SUMOylation inhibitor project, biochemical, AlphaScreen (AID 2018); assay type: functional
[11] = Luminescence Cell-Based Dose Retest to Confirm Inhibitors of Cancer Stem Cells. [Related pubchem assays (depositor defined):AID2717, AID2721]; assay type: functional, Homo sapiens
[12] = target: DNA damage-inducible transcript 3 protein (Mus musculus, UniProt P35639); assay type: functional, Cricetulus griseus
Troponin, cardiac muscle = Troponin, cardiac muscle (Homo sapiens, UniProt P19429+P45379+P63316); experiment: Fluorescence-based biochemical high throughput dose response assay for activators of the calcium sensitivity of cardiac Regulated Thin Filaments (RTF). [Related pubchem assays (depositor defined):AID493008, AID493018, AID504382, AID504383]; assay type: protein-complex assay
[13] = target: Nucleotide-binding oligomerization domain-containing protein 2 (Homo sapiens, UniProt Q9HC29); experiment: NOD2 signaling inhibitors, cell-based, luminescence, uHTS, HEK293 (AID 1566); assay type: functional
[14] = target: T5, Nucleotide-binding oligomerization domain-containing protein 1 (Homo sapiens, UniProt Q9Y239); experiment: NOD1 signaling inhibitors, SAR follow-up, revised (AID 2333); assay type: functional
T5 sequence (Q9Y239 whole entry): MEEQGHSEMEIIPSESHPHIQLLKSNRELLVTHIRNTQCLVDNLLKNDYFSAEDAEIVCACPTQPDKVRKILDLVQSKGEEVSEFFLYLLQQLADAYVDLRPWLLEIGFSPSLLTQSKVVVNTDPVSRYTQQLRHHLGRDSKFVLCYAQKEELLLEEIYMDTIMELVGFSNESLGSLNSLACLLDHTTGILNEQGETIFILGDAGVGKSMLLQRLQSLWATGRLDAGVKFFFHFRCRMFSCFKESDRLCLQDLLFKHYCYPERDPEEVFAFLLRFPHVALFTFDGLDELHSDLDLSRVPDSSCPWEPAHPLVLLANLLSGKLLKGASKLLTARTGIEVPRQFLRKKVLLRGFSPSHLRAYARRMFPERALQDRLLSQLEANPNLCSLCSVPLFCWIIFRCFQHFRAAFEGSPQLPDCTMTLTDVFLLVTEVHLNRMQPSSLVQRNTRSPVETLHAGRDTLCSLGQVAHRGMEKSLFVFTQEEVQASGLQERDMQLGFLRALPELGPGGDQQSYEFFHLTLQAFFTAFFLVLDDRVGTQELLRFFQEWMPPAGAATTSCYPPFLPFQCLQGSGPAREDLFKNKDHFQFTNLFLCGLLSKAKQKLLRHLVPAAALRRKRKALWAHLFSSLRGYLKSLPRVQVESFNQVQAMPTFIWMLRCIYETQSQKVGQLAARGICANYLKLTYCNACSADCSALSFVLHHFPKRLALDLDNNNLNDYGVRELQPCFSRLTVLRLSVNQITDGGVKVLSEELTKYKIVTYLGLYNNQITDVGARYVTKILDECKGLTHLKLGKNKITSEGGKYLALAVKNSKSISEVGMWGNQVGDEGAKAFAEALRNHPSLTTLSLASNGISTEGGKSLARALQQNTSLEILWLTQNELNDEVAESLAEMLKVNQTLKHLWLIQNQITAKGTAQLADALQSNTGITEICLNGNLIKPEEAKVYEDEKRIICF

Tumor necrosis factor = Tumor necrosis factor (Homo sapiens, UniProt P01375); experiment: TNFa-triggered NF-kB activation inhibitors, SAR follow-up, cell-based, revised (AID 2337); assay type: functional
[15] = target: G-protein coupled receptor 55 (Homo sapiens, UniProt Q9Y2T6); experiment: GPR55 antagonists blocking LPI-driven arrestin recruitment, primary screen, imaging, U2OS, beta-arrestin-GFP, LPI agonist (AID 2013); assay type: functional;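 note: antagonist potency measured as reduced agonist-driven arrestin aggregation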
[16] = growth suppression of PTEN-null colon cells, dose response, cell-based, HCT116 PTEN knockout (AID 1047); assay type: functional;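 note: HCT116 colon tumor cells with PTEN knocked out; cells exposed to compound for 60 hours before readout; potency for loss of cell viability measured by luminescence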
CHO = experiment: cytotoxicity in TLR9-MyD88 CHO cells, dose response, cytotoxicity control for TLR9-MyD88 binding inhibitor project, cell-based, luminescence (AID 588339); assay type: functional, hamster; conditions: Cricetulus griseus;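 note: CHO cells stably coexpressing TLR9 and MyD88 fusions from primary screen; compound exposure lasted 48 hours before viability readout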
INS1 = experiment: beta cell apoptosis inhibitors, cytokine rescue, dose response, luminescence, retest (AID 449756); assay type: functional, cell-based; conditions: Rattus norvegicus;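 note: cell death triggered by IL-1 beta plus TNF-alpha plus IFN-gamma mixture; protective hits raise ATP signal compared with cytokine alone wells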
Beta Lactamase = Beta Lactamase (Pseudomonas aeruginosa, UniProt Q932Y6); experiment: beta-lactamase reporter inhibitor potency, dose response, artefact control for TLR9-MyD88 binding inhibitor project, BLA reporter cells, FRET fluorescence (AID 588341); assay type: cell-based;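 note: cell based assay in CHO-K1 cells stably expressing beta-lactamase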
[17] = growth suppression of beta-catenin-knockout colon cells, dose response, cell-based, HCT116, human colon tumor (AID 1045); assay type: functional;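 note: HCT116 colon tumor cells with beta catenin knocked out; cells exposed to compound for 60 hours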
Coagulation factor XII = target: T6, Coagulation factor XII (Homo sapiens, UniProt P00748); assay type: functional;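 note: activated factor XIIa alpha cleaving a fluorogenic AMC peptide substrate; inhibitor potency from loss of enzyme activity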
T6 sequence (P00748 whole entry): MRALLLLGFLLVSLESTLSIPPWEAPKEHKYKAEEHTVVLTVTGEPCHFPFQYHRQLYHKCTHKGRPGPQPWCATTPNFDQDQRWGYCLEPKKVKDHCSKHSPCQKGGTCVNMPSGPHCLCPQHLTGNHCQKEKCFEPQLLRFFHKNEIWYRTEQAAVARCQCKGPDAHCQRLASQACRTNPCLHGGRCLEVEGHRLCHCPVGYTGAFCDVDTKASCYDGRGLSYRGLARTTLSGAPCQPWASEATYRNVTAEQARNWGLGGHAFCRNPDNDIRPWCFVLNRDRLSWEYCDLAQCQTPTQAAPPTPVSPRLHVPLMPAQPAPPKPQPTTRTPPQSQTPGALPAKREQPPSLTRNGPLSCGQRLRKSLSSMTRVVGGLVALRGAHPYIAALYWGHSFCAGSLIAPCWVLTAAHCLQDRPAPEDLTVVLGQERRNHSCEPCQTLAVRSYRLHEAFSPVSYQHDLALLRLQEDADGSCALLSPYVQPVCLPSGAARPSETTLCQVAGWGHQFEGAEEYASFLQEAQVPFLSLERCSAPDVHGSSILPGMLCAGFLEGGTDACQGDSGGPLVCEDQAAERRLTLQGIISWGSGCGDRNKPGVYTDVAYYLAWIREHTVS

[18] = target: T7, Calpain-2 catalytic subunit (Sus scrofa, UniProt P43367); experiment: pig calpain II inhibitor potency, dose response, biochemical, fluorogenic peptide substrate (AID 1420); assay type: functional
T7 sequence (P43367 whole entry): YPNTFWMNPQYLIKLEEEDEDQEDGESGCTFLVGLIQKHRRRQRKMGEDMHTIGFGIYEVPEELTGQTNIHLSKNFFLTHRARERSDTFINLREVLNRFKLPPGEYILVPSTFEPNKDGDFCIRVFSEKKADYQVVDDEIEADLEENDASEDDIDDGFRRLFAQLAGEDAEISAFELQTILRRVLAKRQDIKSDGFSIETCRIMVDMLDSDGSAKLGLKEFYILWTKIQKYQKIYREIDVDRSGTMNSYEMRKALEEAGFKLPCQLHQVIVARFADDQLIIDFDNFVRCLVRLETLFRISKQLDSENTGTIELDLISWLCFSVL

H4 = experiment: Luminescence Cell-Based Dose Response HTS to Identify Activators of 5'UTR Stem-Loop Driven Prion Protein mRNA Translation in H4 Neuroglioblastoma Cells. [Related pubchem assays: 1829 (Project Summary), 1814 (Primary HTS)]; assay type: functional; conditions: Homo sapiens
Prothrombin [19] = target: Prothrombin (Homo sapiens, UniProt P00734); experiment: Thrombin 1536 HTS Dose Response Confirmation. [Related pubchem assays: 1046 (Thrombin 1536 HTS; hits were confirmed in this assay)]; assay type: functional
[20] = Luminescence Cell-Based Dose Response HTS to Identify Activators of Luciferase Translation or Activity in H4 […] Cells. [Related pubchem assays: 1829 (Project Summary), 1814 (Primary HTS)]; assay type: functional

O=Cc1cn(-c2ccccc2)nc1-c1cc2cc(O)ccc2oc1=O
IC50 (SUMO-activating enzyme [1]): 18.1 µM (active) | IC50 [2]: > 66.6 µM (inactive) | IC50 [3]: 7.28 µM (active) | IC50 [4]: 19.4 µM (active) | IC50 [5]: 27.5 µM (inactive) | IC50 (Prothrombin [6]): 35.5 µM (active) | IC50 [7]: > 100 µM (inactive) | IC50 [8]: 3.02 µM (active) | IC50 [9]: 1.96 µM (active) | IC50 (SUMO-activating enzyme [10]): 11.4 µM (active)

C=C(C)[C@@H]1CC[C@]2(C(=O)O)CC[C@]3(C)[C@H](CC[C@@H]4[C@@]5(C)CC[C@H](O)C(C)(C)[C@@H]5CC[C@]43C)[C@@H]12 [BETULINIC ACID]
IC50 (SUMO-activating enzyme [1]): 9.24 µM (active) | AC50 [11]: 1.94 µM (active) | AC50 ([11]; Homo sapiens): 3.05 µM (active) | IC50 (SUMO-activating enzyme [10]): 13.2 µM (active)

Clc1ccc2[nH]c(-c3ccccc3)cc2c1
Absolute IC50 (CHOP) [12]: 10 µM

CC(=O)Oc1ccc(NC(=O)Cc2ccccc2)c(C(=O)O)c1
EC50 (Troponin, cardiac muscle): > 71.5 µM (inactive)

Cc1oc(-c2ccccc2Cl)nc1CSc1nc2c(c(=O)[nH]1)CCCC2
EC50 [13]: 0.73 µM (active) | IC50 [14]: 5.75 µM (active) | IC50 (Tumor necrosis factor): 3.09 µM (active)

N=c1c2c(ncn1Cc1ccco1)Oc1cc(O)ccc1C2c1ccccc1 (stereo not drawn)
EC50 (Troponin, cardiac muscle): > 71.4 µM (inactive) | IC50 [15]: 1.2 µM (active)

Cc1ccccc1NC(=O)/C=C/c1ccc([N+](=O)[O-])s1
EC50 [16]: 1.6 µM (active) | IC50 (CHO): 2.22 µM (active) | AC50 (INS1): 6.17 µM (active) | Absolute IC50 (CHOP) [12]: 10 µM | IC50 (Beta Lactamase): 13.7 µM (inactive) | EC50 [17]: 1.16 µM (active)

O=C1N=C(Nc2ccccc2)S/C1=C/c1cccs1
IC50 (Coagulation factor XII): > 50 µM (inactive) | IC50 [18]: > 50 µM (not active)

O=C(NNC1=NCCCCC1)Nc1cccc(Cl)c1
EC50 (H4): 0.242 µM (active) | IC50 (Prothrombin [19]): 7.74 µM (active) | EC50 [20]: 0.409 µM (active) | IC50 (Coagulation factor XII): > 50 µM (inactive)
